{"source": "patent US20260191865A1", "about": "“CANCER THERAPY WITH CAPIVASERTIB AND FULVESTRANT” (AstraZeneca AB, priority 2022, published 2026)", "origin": "cited, not measured here", "test_system": "ER-positive, HER2-negative advanced breast cancer", "note": "Like-named read-outs stand apart in the source and are kept apart here.", "data": [{"smiles": "NC1(C(=O)N[C@@H](CCO)c2ccc(Cl)cc2)CCN(c2ncnc3[nH]ccc23)CC1", "note": "[capivasertib, (S)-4-amino-N-(1-(4-chlorophenyl)-3-hydroxypropyl)-1-(7H-pyrrolo[2,3-d]pyrimidin-4-yl)piperidine-4-carboxamide]", "values": [{"measurement": "PFS and overall survival benefit", "setting": "NGS-identified pathway non-altered subgroup", "value": "no such benefit"}, {"measurement": "progression-free survival (PFS)", "setting": "capivasertib added to fulvestrant, postmenopausal women, AI-resistant, no previous CDK4/6 inhibitor", "value": "significant improvement"}, {"measurement": "PFS and overall survival benefit", "setting": "expanded (NGS) PI3K/AKT/PTEN pathway-altered subgroup, updated analysis", "value": "significant PFS and overall survival benefit"}, {"measurement": "benefit by original pathway status (secondary endpoint subgroup analysis)", "setting": "original pathway-altered and original pathway non-altered subgroups, capivasertib added to fulvestrant", "value": "conferred benefit"}]}]}
